The source made the active and inactive calls. No cut-off for these calls is given here.
How the values were obtained:
[1] = tested on: Monoclonal antibody (mAb); experiment: Binding affinity against human monoclonal antibody (mAb)-5C2
[2] = tested on: Monoclonal antibody (mAb); experiment: Binding affinity against human monoclonal antibody (mAb)-11E6
[3] = tested on: Monoclonal antibody (mAb); experiment: Binding affinity against human monoclonal antibody (mAb)-1B3
[4] = tested on: Monoclonal antibody (mAb); experiment: Binding affinity against human monoclonal antibody (mAb)-7F2
[5] = tested on: Monoclonal antibody (mAb); experiment: Binding affinity against murine monoclonal antibody (mAb)-40-50

SMILES | IC50 ratio [1] | IC50 ratio [2] | IC50 ratio [3] | IC50 ratio [4] | Relative Ki [5]
C[C@H]1O[C@@H](O[C@H]2[C@@H](O)C[C@H](O[C@H]3CC[C@@]4(C)[C@H](CC[C@@H]5[C@@H]4C[C@@H](O)[C@]4(C)[C@@H](C6=CC(=O)OC6)CC[C@]54O)C3)O[C@@H]2C)C[C@H](O)[C@@H]1O | 1.3 | 0.9 | 1.6 | 1 | –
C[C@]12CC[C@H]3[C@@H](CCC4=CC(=O)CC[C@@]43C)[C@@H]1CC[C@@H]2O | 120 | 110 | inactive | 100 | –
CC(=O)O[C@H]1C[C@H](O[C@H]2[C@@H](O)C[C@H](O[C@H]3[C@@H](O)C[C@H](O[C@H]4CC[C@@]5(C)[C@H](CC[C@@H]6[C@@H]5C[C@@H](O)[C@]5(C)[C@@H](C7=CC(=O)OC7)CC[C@]65O)C4)O[C@@H]3C)O[C@@H]2C)O[C@H](C)[C@H]1O[C@@H]1O[C@H](CO)[C@@H](O)[C@H](O)[C@H]1O | 1.1 | 1.6 | 1.6 | 1.4 | –
CC(=O)O[C@H]1CC[C@@]2(C)[C@H](CC[C@@H]3[C@@H]2CC[C@]2(C)[C@@H](C4=CC(=O)OC4)[C@@H](O)C[C@]32O)C1 | – | – | – | – | 74
C[C@H]1O[C@@H](O[C@@H]2CC[C@@]3(O)CC[C@@H]4[C@H](CC[C@]5(C)[C@@H](C6=CC(=O)OC6)CC[C@]45O)[C@@]3(C=O)C2)C[C@H](O)[C@@H]1O | 3000 | 2500 | 6200 | 2100 | –
CC(C)CCC[C@@H](C)[C@H]1CC[C@H]2[C@@H]3CC=C4C[C@@H](O)CC[C@]4(C)[C@H]3CC[C@]12C | inactive | inactive | inactive | inactive | –
CC(=O)O[C@H]1C[C@H](O[C@H]2CC[C@@]3(C)[C@H](CC[C@@H]4[C@@H]3C[C@@H](O)[C@]3(C)C(C5=CC(=O)OC5)CC[C@]43O)C2)O[C@H](C)[C@H]1O[C@H]1C[C@H](O)[C@H](O[C@H]2C[C@H](O)[C@H](O)[C@@H](C)O2)[C@@H](C)O1 (some centres not stated) | 0.9 | 1.5 | 0.9 | 1 | –
C[C@H]1O[C@@H](O[C@H]2[C@@H](O)C[C@H](O[C@H]3CC[C@@]4(C)[C@H](CC[C@@H]5[C@@H]4CC[C@]4(C)[C@@H](C6=CC(=O)OC6)CC[C@]54O)C3)O[C@@H]2C)C[C@H](O)[C@@H]1O | 14 | 11 | 4.9 | 14 | –
C[C@]12C=CC(=O)C=C1CC[C@@H]1[C@@H]2[C@@H](O)C[C@@]2(C)[C@H]1CC[C@]2(O)C(=O)COC(=O)CCC(=O)O | – | – | 160000 | 3400 | –
C[C@]12CC[C@H](O)CC1CC[C@@H]1[C@@H]2CC[C@]2(C)[C@@H](C3=CC(=O)OC3)CC[C@]12O (single isomer, unassigned) | 3.6 | 6.7 | 4900 | 4.1 | –
CC(=O)O[C@]1(C(C)=O)CC[C@H]2[C@@H]3CCC4=C/C(=N/OCC(=O)O)CC[C@]4(C)[C@H]3CC[C@@]21C | – | – | No inhibition | No inhibition | –
C[C@]12CC[C@@H](O)C[C@@H]1CC[C@@H]1[C@@H]2CC[C@]2(C)C(=O)CC[C@@H]12 | inactive | 1800 | inactive | 1300 | –
C[C@]12CC[C@@H](O)C[C@H]1CC[C@@H]1[C@@H]2C[C@@H](O)[C@]2(C)[C@@H](C3=CC(=O)OC3)CCC12O (some centres not stated) | – | – | – | – | 12
CO[C@H]1C(O)[C@H](O[C@H]2CC[C@@]3(C)[C@H](CC[C@@H]4[C@@H]3CC[C@]3(C)[C@@H](C5=CC(=O)OC5)CC[C@]43O)C2)O[C@@H](C)[C@@H]1O[C@@H]1O[C@H](CO[C@@H]2O[C@H](CO)[C@@H](O)[C@H](O)[C@H]2O)[C@@H](O)[C@H](O)[C@H]1O (some centres not stated) | 7.6 | 18 | 97 | 8.6 | –
C[C@]12C[C@H](O)[C@H]3[C@@H](CCC4=CC(=O)CC[C@@]43C)[C@@H]1CC[C@@H]2C(=O)CO | 420 | 970 | 14000 | 390 | –
C[C@@H]1O[C@@H](O[C@@H]2C=C3CC[C@@H]4[C@H](CC[C@]5(C)[C@@H](c6ccc(=O)oc6)CC[C@]45O)[C@@]3(C)CC2)[C@H](O)[C@H](O)[C@H]1O | 400 | 800 | 670 | 69 | –
CC1CC(O[C@H]2CC[C@@]3(C)[C@H](CC[C@@H]4[C@@H]3CC[C@]3(C)[C@@H](C5=CC(=O)OC5)CC[C@]43O)C2)CC(O)C1O (some centres not stated) | 47 | 25 | 36 | 29 | –
C[C@]12CCC(=O)C=C1CC[C@@H]1[C@@H]2[C@@H](O)C[C@]2(C=O)[C@@H](C(=O)CO)CC[C@@H]12 | 550 | 760 | inactive | 540 | –
C[C@]12CCC(=O)C=C1CC[C@@H]1[C@@H]2[C@@H](O)C[C@@]2(C)[C@H]1CC[C@]2(O)C(=O)CO | 650 | 3700 | No inhibition | 1100 | –
C[C@]12C=CC(=O)C=C1CC[C@@H]1[C@@H]2C(=O)C[C@@]2(C)[C@H]1CC[C@]2(O)C(=O)CO | 3400 | No inhibition | No inhibition | No inhibition | –

SMILES | IC50 ratio [1] | IC50 ratio [2] | IC50 ratio [3] | IC50 ratio [4] | Relative Ki [5]
CC(=O)OCC(=O)[C@@]1(O)CC[C@H]2[C@@H]3CCC4=CC(=O)C=C[C@]4(C)[C@H]3[C@@H](O)C[C@@]21C | – | – | No inhibition | 12000 | –
C[C@H]1O[C@@H](O[C@H]2[C@@H](O)C[C@H](O[C@H]3[C@@H](O)C[C@H](O[C@H]4CC[C@@]5(C)[C@H](CC[C@@H]6[C@@H]5CC[C@]5(C)[C@H](C7COC(=O)C7)CC[C@]65O)C4)O[C@@H]3C)O[C@@H]2C)C[C@H](O)[C@@H]1O (some centres not stated) | – | – | 340 | 1800 | –
CC(=O)O[C@H]1C[C@H](O[C@H]2[C@@H](O)C[C@H](O[C@H]3[C@@H](O)C[C@H](O[C@H]4CC[C@@]5(C)[C@H](CC[C@@H]6[C@@H]5CC[C@]5(C)[C@@H](C7=CC(=O)OC7)CC[C@]65O)C4)O[C@@H]3C)O[C@@H]2C)O[C@H](C)[C@H]1O | 48 | 20 | 3.9 | 25 | –
C[C@]12CC[C@H](O)C[C@H]1CC[C@@H]1[C@@H]2CC[C@]2(C)[C@@H](c3ccc(=O)oc3)CC[C@]12O | 250 | 260 | 6700 | 550 | –
CC(=O)O[C@H]1C[C@]2(O)[C@@H]3CC[C@@H]4C[C@@H](O)CC[C@]4(C)[C@H]3CC[C@]2(C)[C@H]1C1=CC(=O)OC1 | – | – | – | – | 8600
C[C@]12CC[C@H](O)CC1=CC[C@@H]1[C@@H]2CC[C@]2(C)C(=O)CC[C@@H]12 | – | – | No inhibition | – | –
CC(=O)O[C@H]1C[C@]2(O)[C@@H]3CC[C@@H]4C[C@@H](O[C@H]5C[C@H](O)[C@H](O)[C@@H](C)O5)CC[C@]4(C)[C@H]3CC[C@]2(C)[C@H]1C1=CC(=O)OC1 | – | – | – | – | 4
CC(=O)O[C@]1(C(C)=O)CC[C@H]2[C@@H]3C=C(Cl)C4=CC(=O)CC[C@]4(C)[C@H]3CC[C@@]21C | – | – | No inhibition | No inhibition | –
CO[C@H]1[C@@H](O)[C@@H](C)O[C@@H](O[C@H]2CC[C@@]3(C)[C@H](CC[C@@H]4[C@@H]3CC[C@]3(C)[C@@H](C5=CC(=O)OC5)C(O)C[C@]43O)C2)[C@@H]1O (some centres not stated) | – | – | – | – | 35
C[C@]12CC[C@H]3[C@@H](CC[C@]4(O)C[C@@H](O)CC[C@]34CO)[C@@]1(O)CC[C@@H]2C1=CC(=O)OC1 | – | – | – | – | 4
C[C@]12CCC(=O)C=C1CC[C@@H]1[C@@H]2C(=O)C[C@@]2(C)[C@H]1CC[C@]2(O)C(=O)CO | No inhibition | No inhibition | No inhibition | No inhibition | –
CO[C@@H]1[C@H](O)[C@@H](O[C@@H]2C[C@H]3CC[C@@H]4[C@H](CC[C@]5(C)[C@@H](C6=CC(=O)OC6)CC[C@]45O)[C@@]3(C)[C@H](O)C2)O[C@@H](C)[C@@H]1O | – | – | – | – | 0.5
C[C@H]1O[C@@H](O[C@H]2[C@@H](O)C[C@H](O[C@H]3[C@@H](O)C[C@@H](O[C@H]4CC[C@@]5(C)[C@H](CC[C@@H]6[C@@H]5C[C@@H](O)[C@]5(C)[C@@H](C7=CC(=O)OC7)CC[C@]65O)C4)O[C@@H]3C)O[C@@H]2C)C[C@H](O)[C@@H]1O | – | – | – | – | 280
C[C@]12CC[C@H](O)C[C@H]1CC[C@@H]1[C@@H]2C[C@@H](O)[C@]2(C)[C@@H]([C@@H]3COC(=O)C3)CC[C@]12O | – | – | – | – | 300
CC(=O)O[C@@H]1C[C@H]2[C@@H](CC[C@@H]3C[C@@H](O[C@H]4C[C@H](O)[C@H](O[C@H]5C[C@H](O)[C@H](O[C@H]6C[C@H](O)[C@H](O)[C@@H](C)O6)[C@@H](C)O5)[C@@H](C)O4)CC[C@@]32C)[C@@]2(O)CCC(C3=CC(=O)OC3)[C@@]12C (some centres not stated) | – | – | – | – | 0.5
CC(=O)O[C@H]1[C@H]2O[C@]23[C@@H]2CC[C@@H]4C[C@@H](O)CC[C@]4(C)[C@H]2CC[C@]3(C)[C@H]1c1ccc(=O)oc1 | 570 | 800 | 98000 | 1700 | –
C[C@]12CC[C@@H]3c4ccc(O)cc4CC[C@H]3[C@@H]1CC[C@@H]2O | inactive | inactive | inactive | inactive | –
C[C@H]1O[C@@H](O[C@H]2[C@@H](O)C[C@H](O[C@H]3[C@@H](O)C[C@H](O[C@H]4CC[C@@]5(C)[C@H](CC[C@@H]6[C@@H]5CC[C@]5(C)[C@@H](C7=CC(=O)OC7)[C@@H](OC=O)C[C@]65O)C4)O[C@@H]3C)O[C@@H]2C)C[C@H](O)[C@@H]1O | – | – | – | – | 35
C[C@H]1O[C@@H](O[C@H]2[C@@H](O)C[C@H](O[C@H]3[C@@H](O)C[C@@H](O[C@H]4CC[C@@]5(C)[C@H](CC[C@@H]6[C@@H]5C[C@@H](O)[C@]5(C)[C@@H](C7=CC(=O)OC7)[C@@H](O)C[C@]65O)C4)O[C@@H]3C)O[C@@H]2C)C[C@H](O)[C@@H]1O | – | – | – | – | 33
